Consider two molecules from ChEMBL document CHEMBL5331077, “Combining pharmacophore models derived from DNA-encoded chemical libraries with structure-based exploration to predict Tankyrase 1 inhibitors” (Eur J Med Chem, 2023).

Test [1] has as its target Protein mono-ADP-ribosyltransferase PARP6 (Homo sapiens) (UniProt Q2NL67). The test can be described thus: Inhibition of PARP6 (unknown origin).
Test [2] addresses T1, Protein mono-ADP-ribosyltransferase PARP10 (Homo sapiens) (UniProt Q53GL7).
T1 sequence (whole entry): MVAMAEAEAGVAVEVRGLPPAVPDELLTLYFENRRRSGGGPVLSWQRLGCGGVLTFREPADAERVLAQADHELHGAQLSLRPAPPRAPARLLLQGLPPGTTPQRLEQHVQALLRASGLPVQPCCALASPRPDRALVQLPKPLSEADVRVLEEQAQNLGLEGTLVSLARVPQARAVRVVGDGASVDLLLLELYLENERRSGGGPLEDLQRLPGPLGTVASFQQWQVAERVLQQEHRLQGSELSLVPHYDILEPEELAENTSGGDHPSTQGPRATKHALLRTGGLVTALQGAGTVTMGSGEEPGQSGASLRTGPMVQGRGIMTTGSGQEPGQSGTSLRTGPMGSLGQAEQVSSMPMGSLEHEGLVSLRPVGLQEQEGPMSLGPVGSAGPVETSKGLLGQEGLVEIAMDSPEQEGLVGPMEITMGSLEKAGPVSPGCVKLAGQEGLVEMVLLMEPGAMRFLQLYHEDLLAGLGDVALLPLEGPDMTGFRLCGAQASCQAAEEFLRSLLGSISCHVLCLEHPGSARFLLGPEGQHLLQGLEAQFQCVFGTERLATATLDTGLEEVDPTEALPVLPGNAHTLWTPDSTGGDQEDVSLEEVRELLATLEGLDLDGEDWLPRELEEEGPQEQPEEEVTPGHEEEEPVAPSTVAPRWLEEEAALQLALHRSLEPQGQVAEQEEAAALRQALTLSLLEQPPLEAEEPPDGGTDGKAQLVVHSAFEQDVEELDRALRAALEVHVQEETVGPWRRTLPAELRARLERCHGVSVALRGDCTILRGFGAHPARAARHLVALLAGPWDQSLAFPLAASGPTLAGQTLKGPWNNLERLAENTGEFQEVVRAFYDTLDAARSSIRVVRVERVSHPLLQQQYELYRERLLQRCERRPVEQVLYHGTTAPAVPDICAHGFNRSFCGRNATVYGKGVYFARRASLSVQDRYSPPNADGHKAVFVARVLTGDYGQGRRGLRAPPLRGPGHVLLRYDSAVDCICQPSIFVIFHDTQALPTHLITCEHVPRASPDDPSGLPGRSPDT
Nature of the test: Inhibition of PARP10 (unknown origin).

For test [3], the target named is Protein mono-ADP-ribosyltransferase PARP14 (Homo sapiens) (UniProt Q460N5). Nature of the test: Inhibition of PARP14 (unknown origin).
The target of test [4] is T2, Protein mono-ADP-ribosyltransferase PARP15 (Homo sapiens) (UniProt Q460N3).
T2 sequence (whole entry): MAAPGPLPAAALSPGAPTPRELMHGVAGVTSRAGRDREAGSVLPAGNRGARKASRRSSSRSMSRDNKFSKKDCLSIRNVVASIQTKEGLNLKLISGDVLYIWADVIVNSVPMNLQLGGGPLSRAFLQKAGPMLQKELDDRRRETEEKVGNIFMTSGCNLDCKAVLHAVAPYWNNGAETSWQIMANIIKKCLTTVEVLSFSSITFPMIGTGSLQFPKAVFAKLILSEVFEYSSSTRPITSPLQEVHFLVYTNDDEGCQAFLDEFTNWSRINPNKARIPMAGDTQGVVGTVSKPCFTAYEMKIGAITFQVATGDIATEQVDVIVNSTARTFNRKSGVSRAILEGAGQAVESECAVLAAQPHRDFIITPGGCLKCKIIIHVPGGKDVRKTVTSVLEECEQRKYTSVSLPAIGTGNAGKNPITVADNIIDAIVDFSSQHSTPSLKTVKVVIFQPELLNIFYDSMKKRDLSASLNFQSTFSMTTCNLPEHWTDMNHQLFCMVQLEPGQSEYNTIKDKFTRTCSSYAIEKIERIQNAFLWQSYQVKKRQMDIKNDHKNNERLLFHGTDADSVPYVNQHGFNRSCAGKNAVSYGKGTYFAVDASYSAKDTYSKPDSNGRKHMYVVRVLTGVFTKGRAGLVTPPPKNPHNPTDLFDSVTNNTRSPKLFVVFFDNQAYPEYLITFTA
The test can be described thus: Inhibition of PARP15 (unknown origin).

The source made the active and inactive calls. The calls are words filed in the database; no cut-off is given here.

Protein mono-ADP-ribosyltransferase PARP6 (Homo sapiens), sequence (Q2NL67 whole entry): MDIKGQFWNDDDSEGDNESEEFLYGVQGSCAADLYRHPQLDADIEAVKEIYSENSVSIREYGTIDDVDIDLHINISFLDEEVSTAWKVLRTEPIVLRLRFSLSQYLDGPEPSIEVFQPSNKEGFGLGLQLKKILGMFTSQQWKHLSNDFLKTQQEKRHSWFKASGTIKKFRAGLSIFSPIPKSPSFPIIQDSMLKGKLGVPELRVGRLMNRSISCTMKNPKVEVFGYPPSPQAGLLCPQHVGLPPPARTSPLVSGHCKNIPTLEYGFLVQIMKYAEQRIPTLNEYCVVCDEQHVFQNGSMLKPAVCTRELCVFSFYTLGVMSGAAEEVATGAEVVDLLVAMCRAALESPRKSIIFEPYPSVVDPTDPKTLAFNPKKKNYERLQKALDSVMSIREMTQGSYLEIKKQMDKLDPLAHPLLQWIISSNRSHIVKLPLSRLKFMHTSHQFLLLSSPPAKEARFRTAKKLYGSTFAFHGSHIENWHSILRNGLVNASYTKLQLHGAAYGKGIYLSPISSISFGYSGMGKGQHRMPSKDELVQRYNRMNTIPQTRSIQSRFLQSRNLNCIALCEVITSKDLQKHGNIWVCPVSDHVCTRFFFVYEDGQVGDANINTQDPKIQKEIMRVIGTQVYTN
Protein mono-ADP-ribosyltransferase PARP14 (Homo sapiens), sequence (Q460N5 whole entry): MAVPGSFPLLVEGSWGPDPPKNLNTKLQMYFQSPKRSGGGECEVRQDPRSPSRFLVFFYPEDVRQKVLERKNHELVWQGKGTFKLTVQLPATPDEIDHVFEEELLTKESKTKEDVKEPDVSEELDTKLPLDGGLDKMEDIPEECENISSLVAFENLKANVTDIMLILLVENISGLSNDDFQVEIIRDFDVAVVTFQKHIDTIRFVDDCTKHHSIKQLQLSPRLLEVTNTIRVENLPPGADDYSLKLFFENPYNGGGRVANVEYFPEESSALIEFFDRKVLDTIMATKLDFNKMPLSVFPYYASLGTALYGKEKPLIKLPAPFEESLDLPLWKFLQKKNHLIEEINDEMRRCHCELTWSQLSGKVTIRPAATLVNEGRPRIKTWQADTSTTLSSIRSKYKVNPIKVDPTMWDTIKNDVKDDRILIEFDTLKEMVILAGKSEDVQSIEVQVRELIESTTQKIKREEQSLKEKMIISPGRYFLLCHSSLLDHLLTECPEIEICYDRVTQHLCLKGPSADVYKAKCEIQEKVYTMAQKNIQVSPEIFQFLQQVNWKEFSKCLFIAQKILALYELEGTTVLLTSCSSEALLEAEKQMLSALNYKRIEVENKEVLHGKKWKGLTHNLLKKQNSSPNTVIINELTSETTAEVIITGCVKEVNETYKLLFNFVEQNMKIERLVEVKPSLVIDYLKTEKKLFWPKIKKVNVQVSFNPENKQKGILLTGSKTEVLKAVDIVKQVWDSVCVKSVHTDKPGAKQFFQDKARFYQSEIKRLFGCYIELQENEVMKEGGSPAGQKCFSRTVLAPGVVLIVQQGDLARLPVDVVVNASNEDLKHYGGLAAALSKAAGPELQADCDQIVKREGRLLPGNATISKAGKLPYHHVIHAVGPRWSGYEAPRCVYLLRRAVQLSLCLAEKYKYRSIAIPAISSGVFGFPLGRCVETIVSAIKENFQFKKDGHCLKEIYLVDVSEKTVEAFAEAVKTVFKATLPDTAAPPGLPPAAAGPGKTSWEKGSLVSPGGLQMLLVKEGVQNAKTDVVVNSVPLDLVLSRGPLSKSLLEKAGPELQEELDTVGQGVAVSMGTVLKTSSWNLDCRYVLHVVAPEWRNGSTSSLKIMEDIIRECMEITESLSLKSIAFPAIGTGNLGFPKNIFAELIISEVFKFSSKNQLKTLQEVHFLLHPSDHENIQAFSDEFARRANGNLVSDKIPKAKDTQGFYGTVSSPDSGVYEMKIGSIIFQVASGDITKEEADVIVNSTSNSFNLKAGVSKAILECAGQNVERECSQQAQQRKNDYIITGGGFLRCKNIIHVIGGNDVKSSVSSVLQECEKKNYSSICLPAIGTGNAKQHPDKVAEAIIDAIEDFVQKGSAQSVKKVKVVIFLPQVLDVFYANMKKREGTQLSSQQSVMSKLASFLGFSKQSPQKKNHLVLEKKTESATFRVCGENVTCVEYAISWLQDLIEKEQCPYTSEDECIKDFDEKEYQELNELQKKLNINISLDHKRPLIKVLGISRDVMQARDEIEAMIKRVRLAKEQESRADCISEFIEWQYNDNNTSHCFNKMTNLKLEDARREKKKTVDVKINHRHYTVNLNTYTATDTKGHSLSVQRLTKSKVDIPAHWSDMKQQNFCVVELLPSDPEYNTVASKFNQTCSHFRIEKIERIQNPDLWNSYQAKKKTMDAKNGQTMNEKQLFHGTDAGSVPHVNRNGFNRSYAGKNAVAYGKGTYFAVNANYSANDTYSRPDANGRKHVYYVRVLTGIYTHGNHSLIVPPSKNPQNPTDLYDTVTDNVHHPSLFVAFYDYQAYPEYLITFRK

Regarding `Cc1cc(OCC(=O)NCCNC(=O)c2cccc(COc3ccccc3C(N)=O)c2)c2c3c(c(=O)oc2c1)CCC3`, the inhibition entry in test [1] and in test [3] was “inactive” in each case. For the same molecule, the inhibition result in test [2] and in test [4] was “Active” throughout.

Take `CNC(=O)[C@H](CNC(=O)CCn1c(=O)[nH]c(=O)c2ccccc21)NC(=O)c1cnc2ccccc2c1`: the inhibition result in test [1], in test [2], in test [3] and in test [4] was “inactive” in each case.
